US8889704B2 (Array BioPharma Inc., priority 2011, dated 2014)
Where a name gives a salt, the structure may show the parent alone.

Legend:
Format in all cases: biochemical
PIM-1 = PIM-1 (Homo sapiens, UniProt P11309); test: Enzyme PIM-1 Assay ([33P]ATP incorporation into PIM2tide, filter plate); conditions: averaged IC50; 35 μM ATP, 7.5 μM PIM2tide, 0.25 nM PIM-1, 60 min at 22° C.
Method in brief: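 Ten-point, 3-fold dilution series (10 μM top, 2% DMSO final) tested for inhibition of 33P transfer from 35 μM ATP to 7.5 μM PIM2tide by 0.25 nM PIM-1. Reaction 60 min, 22 °C, pH 7.4 MOPS/MgCl2 buffer; phosphocellulose capture, scintillation counting, IC50 where fitted POC equals 50.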

[1] = molecular target: T1, GST-tagged recombinant full-length human Pim-2 (Homo sapiens, UniProt Q9P1W9); test: PIM-2 Assay (as Example A); conditions: averaged IC50; 4 μM ATP, 1.0 μM PIM2tide, 1.5 nM Pim-2
T1 construct: GST-tagged recombinant full-length human Pim-2; GST
Method in brief: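 IC50 was derived by 4-parameter logistic fitting of percent-of-control data over a 10-point, 3-fold series (highest 10 μM, 2% DMSO). Reactions held 1.5 nM GST-Pim-2 (full-length, human), 4 μM [γ-33P]ATP and 1.0 μM PIM2tide for 60 min at 22 °C, pH 7.4; 33P-peptide captured on P81 filters.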

recombinant rat PIM-3 = recombinant rat PIM-3 (Rattus norvegicus, UniProt O70444); test: PIM-3 Assay (as Example A); conditions: averaged IC50; 30 μM ATP, 3.75 μM PIM2tide, 0.5 nM PIM-3
Method in brief: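 33P incorporation from 30 μM [γ-33P]ATP into 3.75 μM PIM2tide by 0.5 nM rat PIM-3, 60 min at 22 °C in pH 7.4 MOPS buffer, read by P81 filter capture and scintillation counting. Compounds tested in 3-fold dilutions up to 10 μM final, 2% DMSO; percent-of-control data fitted by 4-parameter logistic for IC50.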

Sequence of PIM-1 (P11309 whole entry, species assumed): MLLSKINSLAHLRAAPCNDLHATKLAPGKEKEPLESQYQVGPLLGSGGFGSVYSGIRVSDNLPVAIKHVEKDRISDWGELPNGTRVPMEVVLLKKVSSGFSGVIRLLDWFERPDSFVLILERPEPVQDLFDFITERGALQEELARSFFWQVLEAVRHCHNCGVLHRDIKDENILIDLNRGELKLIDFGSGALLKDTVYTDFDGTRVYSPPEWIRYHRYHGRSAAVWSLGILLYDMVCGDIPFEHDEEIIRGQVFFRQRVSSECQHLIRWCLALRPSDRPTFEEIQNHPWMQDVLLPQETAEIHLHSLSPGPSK
T1 sequence (Q9P1W9 whole entry): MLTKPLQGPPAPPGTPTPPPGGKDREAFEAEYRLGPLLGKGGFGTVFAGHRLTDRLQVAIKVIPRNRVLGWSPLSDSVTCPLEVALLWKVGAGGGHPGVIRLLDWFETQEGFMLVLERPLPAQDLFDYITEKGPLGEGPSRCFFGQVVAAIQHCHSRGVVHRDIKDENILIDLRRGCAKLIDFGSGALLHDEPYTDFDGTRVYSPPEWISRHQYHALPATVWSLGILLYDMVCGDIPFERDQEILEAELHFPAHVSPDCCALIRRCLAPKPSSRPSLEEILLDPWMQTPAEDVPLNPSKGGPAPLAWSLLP

SMILES | IC50 (PIM-1) | IC50 [1] | IC50 (recombinant rat PIM-3)
CC(C)NC(=O)c1ccc2ccc(-c3nnc4ccc(C(N5CC[C@H](N)C5)C(F)(F)F)cn34)nc2c1 (stereo partly drawn) [Example 30, 2-(6-(1-((S)-3-aminopyrrolidin-1-yl)-2,2,2-trifluoroethyl)-[1,2,4]triazolo[4,3-a]pyridin-3-yl)-N-isopropylquinoline-7-carboxamide dihydrochloride] | 0.32 nM | 63 nM | 0.9 nM
COCC(C)(C)c1cccc2ccc(-c3nnc4ccc([C@@H](N5CC[C@H](N)C5)C(F)(F)F)cn34)nc12 [Example 105, (S)-1-((R)-2,2,2-trifluoro-1-(3-(8-(1-methoxy-2-methylpropan-2-yl)quinolin-2-yl)-[1,2,4]triazolo[4,3-a]pyridin-6-yl)ethyl)pyrrolidin-3-amine dihydrochloride] | 0.04 nM | 13 nM | 0.7 nM
N[C@H]1CCN([C@H](c2ccc3nnc(-c4ccc5cccc(O)c5n4)n3c2)C(F)(F)F)C1 [Example 208, 2-(6-((R)-1-((S)-3-aminopyrrolidin-1-yl)-2,2,2-trifluoroethyl)-[1,2,4]triazolo[4,3-a]pyridin-3-yl)quinolin-8-ol dihydrochloride] | 0.41 nM | > 1000 nM | 2.5 nM
Cn1cc(-c2ccc3ccc(-c4nnc5ccc([C@H](N6CC[C@H](N)C6)C(F)(F)F)cn45)nc3c2)cn1 (single isomer, unassigned) [Example 14, tri-hydrochloride] | 0.15 nM | 76 nM | 0.4 nM
C[C@@]1(N)CCN([C@@H](c2ccc3nnc(-c4ccc5cccc(C6CC6)c5n4)n3c2)C(F)(F)F)C1 [Example 94, (R)-1-((S)-1-(3-(8-cyclopropylquinolin-2-yl)-[1,2,4]triazolo[4,3-a]pyridin-6-yl)-2,2,2-trifluoroethyl)-3-methylpyrrolidin-3-amine dihydrochloride] | 0.29 nM | 31 nM | 4.6 nM
COc1cccc2ccc(-c3nnc4ccc([C@@H](N5CC[C@@](N)(CF)C5)C(F)(F)F)cn34)nc12 (single isomer, unassigned) [Example 169] | 6.65 nM | > 100 nM | 36 nM
CC(C)(C)C(=O)OCCOc1cc2nc(-c3nnc4ccc([C@@H](N5CC[C@H](N)C5)C(F)(F)F)cn34)ccc2cc1F [Example 286, 2-(2-(6-((R)-1-((S)-3-aminopyrrolidin-1-yl)-2,2,2-trifluoroethyl)-[1,2,4]triazolo[4,3-a]pyridin-3-yl)-6-fluoroquinolin-7-yloxy)ethyl pivalate] | 1.38 nM | > 1000 nM | 33 nM
CC(=O)N[C@H]1CCN(C(c2ccc3nnc(-c4ccc5cccc(OCC6CC6)c5n4)n3c2)C(F)(F)F)C1 (stereo partly drawn) [Example 50, N-((3S)-1-(1-(3-(8-(cyclopropylmethoxy)quinolin-2-yl)-[1,2,4]triazolo[4,3-a]pyridin-6-yl)-2,2,2-trifluoroethyl)pyrrolidin-3-yl)acetamide] | 4.88 nM | > 100 nM | 41 nM
N[C@H]1CCN(C(c2ccc3nnc(-c4ccc5cc(F)c(OCCOC(=O)c6ccccc6)cc5n4)n3c2)C(F)(F)F)C1 (stereo in doubt) [Example 313, 2-((2-(6-((R)-1-((S)-3-aminopyrrolidin-1-yl)-2,2,2-trifluoroethyl)-[1,2,4]triazolo[4,3-a]pyridin-3-yl)-6-fluoroquinolin-7-yl)oxy)ethyl benzoate] | 1.15 nM | 5700 nM | 6.1 nM
CC(C)N[C@H]1CCN([C@H](c2ccc3nnc(-c4ccc5cccc(O[C@H](C)CO)c5n4)n3c2)C(F)(F)F)C1 [Example 231, dihydrochloride] | 0.88 nM | 429 nM | 3.5 nM
CCOc1cc2nc(-c3nnc4ccc([C@@H](N5C[C@@H](N)[C@H](OC)C5)C(F)(F)F)cn34)ccc2cc1F [Example 299, (3R,4R)-1-((R)-1-(3-(7-ethoxy-6-fluoroquinolin-2-yl)-[1,2,4]triazolo[4,3-a]pyridin-6-yl)-2,2,2-trifluoroethyl)-4-methoxypyrrolidin-3-amine dihydrochloride] | 0.55 nM | 695 nM | 1.6 nM
CC(C)(O)Cc1cc2nc(-c3nnc4ccc([C@@H](N5CC[C@H](N)C5)C(F)(F)F)cn34)ccc2cc1F [Example 236, dihydrochloride] | 1.08 nM | 675 nM | 2.4 nM
CC(C)C(=O)Nc1ccc2ccc(-c3nnc4ccc([C@@H](N5CC[C@H](O)C5)C(F)(F)F)cn34)nc2c1 [Example 106, N-(2-(6-((R)-2,2,2-trifluoro-1-((S)-3-hydroxypyrrolidin-1-yl)ethyl)-[1,2,4]triazolo[4,3-a]pyridin-3-yl)quinolin-7-yl)isobutyramide] | 1.62 nM | > 100 nM | 3.4 nM
CC(C)NC(=O)c1ccc2ccc(-c3nnc4ccc([C@@H](N5CC[C@@H](N)C5)C(F)(F)F)cn34)nc2c1 [Example 49, 2-(6-((R)-1-((R)-3-aminopyrrolidin-1-yl)-2,2,2-trifluoroethyl)-[1,2,4]triazolo[4,3-a]pyridin-3-yl)-N-isopropylquinoline-7-carboxamide dihydrochloride] | 0.22 nM | 68 nM | 0.4 nM
CC(C)Oc1c(C#N)ccc2ccc(-c3nnc4ccc([C@@H](N5CC[C@H](N)C5)C(F)(F)F)cn34)nc12 [Example 75, 2-(6-((R)-1-((S)-3-aminopyrrolidin-1-yl)-2,2,2-trifluoroethyl)-[1,2,4]triazolo[4,3-a]pyridin-3-yl)-8-isopropoxyquinoline-7-carbonitrile dihydrochloride] | 1.84 nM | > 100 nM | 18 nM
CC1(N)CCN(C(c2ccc3nnc(-c4ccc5cccc(OCC6CC6)c5n4)n3c2)C(F)(F)F)C1 (stereo not drawn) [Example 27, 1-(1-(3-(8-(cyclopropylmethoxy)quinolin-2-yl)-[1,2,4]triazolo[4,3-a]pyridin-6-yl)-2,2,2-trifluoroethyl)-3-methylpyrrolidin-3-amine dihydrochloride] | 0.8 nM | 334 nM | 25 nM
Cn1cc(-c2ccc3ccc(-c4nnc5ccc([C@H](N6CCC(C)(O)C6)C(F)(F)F)cn45)nc3c2)cn1 (single isomer, unassigned; diastereomer 2) [Example 201, hydrochloride] | 43.5 nM | > 1000 nM | 42 nM
COCCCOc1cc(F)cc2ccc(-c3nnc4ccc([C@@H](N5CC[C@H](N)C5)C(F)(F)F)cn34)nc12 [Example 233, (S)-1-((R)-2,2,2-trifluoro-1-(3-(6-fluoro-8-(3-methoxypropoxy)quinolin-2-yl)-[1,2,4]triazolo[4,3-a]pyridin-6-yl)ethyl)pyrrolidin-3-amine dihydrochloride] | 0.28 nM | 260 nM | 1.1 nM
CC(C)(C)c1cccc2ccc(-c3nnc4ccc([C@@H](N5CC[C@H](NCCO)C5)C(F)(F)F)cn34)nc12 [Example 100, 2-((S)-1-((R)-1-(3-(8-tert-butylquinolin-2-yl)-[1,2,4]triazolo[4,3-a]pyridin-6-yl)-2,2,2-trifluoroethyl)pyrrolidin-3-ylamino)ethanol dihydrochloride] | 0.1 nM | 6.5 nM | 1.1 nM
N[C@H]1CCN([C@H](c2ccc3nnc(-c4ccc5cc(F)cc(OCC6CC6)c5n4)n3c2)C(F)(F)F)C1 [Example 158, (S)-1-((R)-1-(3-(8-(cyclopropylmethoxy)-6-fluoroquinolin-2-yl)-[1,2,4]triazolo[4,3-a]pyridin-6-yl)-2,2,2-trifluoroethyl)pyrrolidin-3-amine hydrochloride] | 0.16 nM | 41 nM | 1.1 nM
CCOc1cc2nc(-c3nnc4ccc([C@H](N5CC[C@@H](CN)C5)C(F)(F)F)cn34)ccc2cc1F [Example 295, ((S)-1-((S)-1-(3-(7-ethoxy-6-fluoroquinolin-2-yl)-[1,2,4]triazolo[4,3-a]pyridin-6-yl)-2,2,2-trifluoroethyl)pyrrolidin-3-yl)methanamine hydrochloride] | 2.55 nM | 522 nM | 12 nM
N#Cc1cccc2ccc(-c3nnc4ccc([C@@H](N5C[C@@H]6C[C@H]5CN6)C(F)(F)F)cn34)nc12 [Example 89, 2-(6-((R)-1-((1S,4S)-2,5-diazabicyclo[2.2.1]heptan-2-yl)-2,2,2-trifluoroethyl)-[1,2,4]triazolo[4,3-a]pyridin-3-yl)quinoline-8-carbonitrile dihydrochloride] | 5.38 nM | > 100 nM | 14 nM
COCCOc1cc2nc(-c3nnc4ccc([C@H](N5CC[C@](C)(N)C5)C(F)(F)F)cn34)ccc2cc1F [Example 298, (S)-3-methyl-1-((S)-2,2,2-trifluoro-1-(3-(6-fluoro-7-(2-methoxyethoxy)quinolin-2-yl)-[1,2,4]triazolo[4,3-a]pyridin-6-yl)ethyl)pyrrolidin-3-amine dihydrochloride] | 0.27 nM | 59 nM | 0.4 nM
